Data published in US4273923A, “Process for preparing aminoglycoside derivatives” (Shionogi & Co., Ltd., priority 1979, dated 1981).
Converted amounts (≈) assume the structure as drawn.

What was measured:
[1] = tested on: Klebsiella pneumoniae Kl-168; test: MIC by agar dilution method; details: KL168, 20 h, read-out: Minimum Inhibitory Concentration (MIC)
Description: (§1) MIC was determined by the following agar dilution method:
(§2) One loopful of a strain of bacteria to be tested on agar slant was inoculated into a medium for growth of inoculum (Trypto Soy Broth; Eiken Chemical Co.) and incubated at 37° C. overnight.
(§3) (2) Preparation of medium for antibacterial activity test
(§4) A sample solution of aminoglycoside derivative was subjected to serial two-fold dilutions with sterile water. These diluted sample solutions were distributed to the Modified Mueller Hinton Agar medium (Nissui-Seiyaku Co.), mixed gently and allowed to solidify.
(§5) One loopful of the bacterial suspension prepared in (1) was placed on the surface of the medium prepared in (2) containing the aminoglycoside derivative in various concentrations at 10^6 CFU/ml inoculum size.

[2] = tested on: Proteus morganii Morg. 96; test: MIC by agar dilution method; details: Morganella morganii, MORG.96, 20 h, read-out: Minimum Inhibitory Concentration (MIC)
Description: as §1, §2, §3, §4, §5

[3] = tested on: Escherichia coli W-677/JR 762; test: MIC by agar dilution method; details: W677/JR762, 20 h, read-out: Minimum Inhibitory Concentration (MIC)
Description: as §1, §2, §3, §4, §5

[4] = tested on: Staphylococcus epidermidis TB-302; test: MIC by agar dilution method; format: cell-based; details: TB302, innoculum size 10^4 CFU/ml, 37° C., 18 to 20 hours, read-out: Minimum Inhibitory Concentration (MIC)
From the text: (1) Preparation of bacterial suspensions
(3) Determination of MIC values

[5] = compared with kanamycin A; cited from earlier work

SMILES | MIC [1] [µg/mL] | MIC [2] [µg/mL] | MIC [3] [µg/mL] | MIC [4] [µg/mL] | antimicrobial activity [5]
NCC1=CC[C@@H](N)[C@@H](O[C@H]2[C@H](O)[C@@H](O[C@H]3O[C@H](CO)[C@@H](O)[C@H](N)[C@H]3O)[C@H](N)C[C@@H]2N)O1 [[A], O-[3-amino-3-deoxy-α-D-glucopyranosyl-(1→6)]-O-[2,6-diamino-2,3,4,6-tetradeoxy-α-D-glycero-hex-4-enopyranosyl-(1→4)]-2-deoxy-D-streptamine] | 50 (≈ 111 µM) | 12.5 (≈ 27.8 µM) | 12.5 (≈ 27.8 µM) | 0.2 (≈ 0.445 µM) | 
NCC[C@H](O)C(=O)N[C@@H]1C[C@H](N)[C@@H](O[C@H]2O[C@H](CN)[C@@H](O)[C@H](O)[C@H]2O)[C@H](O)[C@H]1O[C@H]1O[C@H](CO)[C@@H](O)[C@H](N)[C@H]1O [amikacin] |  |  |  |  | more potent than kanamycin A
NC[C@H]1O[C@H](O[C@H]2[C@H](O)[C@@H](O[C@H]3O[C@H](CO)[C@@H](O)[C@H](N)[C@H]3O)[C@H](N)C[C@@H]2N)[C@H](N)C[C@@H]1O [TOB, tobramycin] | 100 (≈ 214 µM) | 25 (≈ 53.5 µM) | 50 (≈ 107 µM) | 3.1 (≈ 6.63 µM) | 
